Test results as given in publication PMC3790851, “Improved Mass Spectrometry Assay For Plasma Hepcidin: Detection and Characterization of a Novel Hepcidin Isoform” (PLoS ONE, 2013).

Tests used:
[1] = in vitro; conditions: human, heparin plasma
Procedure: (§1) Samples were used for measurement of hepcidin between 4–7 hrs after blood drawing and/or pooled and/or stored in aliquots at various temperatures for prolonged periods of time.
(§2) Mass-to-charge (m/z) spectra were generated by using MALDI-TOF MS (Microflex LT, Bruker Daltonics). Spectra were analyzed by using Bruker Daltonics FlexAnalysis software. […] Total hepcidin concentration was defined as the sum of hepcidin-25, -24, -22, and -20 concentrations.

[2] = target: T1, green fluorescent protein (GFP)-fused human ferroportin (Homo sapiens, UniProt Q9NP59); test: Hepcidin bioactivity assay: GFP-ferroportin internalization and degradation; format: cell-based; conditions: stable cell line, inducible GFP-fused human ferroportin; fluorescence in triplicate wells; four parameter logistic fit; 95% confidence interval: hepcidin-24 126.8 nM - 289.2 nM, hepcidin-25 12.2 nM –17.8 nM; read-out: EC50 for ferroportin internalization and degradation
T1 construct: expressed in transfected cells
T1 sequence (Q9NP59 1-571): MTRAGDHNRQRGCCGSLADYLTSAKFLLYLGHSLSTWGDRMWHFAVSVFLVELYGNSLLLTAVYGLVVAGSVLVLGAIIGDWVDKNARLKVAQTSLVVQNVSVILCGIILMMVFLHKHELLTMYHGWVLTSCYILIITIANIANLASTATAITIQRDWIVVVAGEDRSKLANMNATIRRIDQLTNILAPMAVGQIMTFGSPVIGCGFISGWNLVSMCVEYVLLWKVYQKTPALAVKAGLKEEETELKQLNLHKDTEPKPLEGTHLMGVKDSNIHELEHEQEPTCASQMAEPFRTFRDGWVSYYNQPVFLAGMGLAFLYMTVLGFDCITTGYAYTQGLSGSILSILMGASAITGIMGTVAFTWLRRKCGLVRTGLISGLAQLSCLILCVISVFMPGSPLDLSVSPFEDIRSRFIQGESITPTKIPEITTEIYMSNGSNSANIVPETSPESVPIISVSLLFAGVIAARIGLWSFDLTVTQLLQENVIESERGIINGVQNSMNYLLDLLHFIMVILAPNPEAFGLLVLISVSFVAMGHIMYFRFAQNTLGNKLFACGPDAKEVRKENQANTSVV
Source text: A stable cell line engineered for inducible expression of green fluorescent protein (GFP)-fused human ferroportin was used as a test system to determine hepcidin-24 activity relative to hepcidin-25, 22 and 20. In this cell system, ferroportin internalization and degradation provided a means to quantify hepcidin activity. The assay was implemented basically as described by Nemeth et al., [33] except that fluorescence was quantified in triplicate wells on a microplate reader. To determine EC50 values for hepcidin-25 and hepcidin-24, a curve was fitted by nonlinear regression with a four parameter logistic equation using Prism v5 (GraphPad).
Figure 5 Hepcidin-mediated ferroportin internalization. Different concentrations of synthetic hepcidin-25, -24, -22 and -20 (indicated in nM on the horizontal axis) were added to the growth medium of a stable cell line that expresses green fluorescent protein-fused ferroportin (GFP-FPN). Hepcidin-mediated GFP-FPN internalization and degradation was quantified by measuring cellular fluorescence levels in arbitrary units.

[3] = in vitro; conditions: for remaining at 4320 h: human
Procedure: Serum samples from healthy controls that were used in this study concerned leftover aliquots (stored at −80°C) that were collected in February 2011 [18]. In addition, citrate plasma, heparin plasma, EDTA plasma and serum for stability studies was drawn in the afternoon from healthy volunteers (n = 5), known for having fasted morning hepcidin levels above the lower limit of detection (>0.5 nM) in September 2012. Fresh samples were measured within 2–4 hrs hours after blood drawing and stored in aliquots at various temperatures for prolonged incubation.
Heparin plasma QC samples (n = 2), high and low (HiQC2011 and LoQC2011), were obtained in November 2011 by pooling sample leftover samples from IC patients and iron-depleted HFE-hemochromatosis patients, respectively. Serum QC samples (n = 2), high and low (HiQC2009 and LoQC2009), were obtained in April 2009 from 2 blood donors from the local blood donation centre. To obtain the high QC sample, serum of one of the donors with a native hepcidin concentration <1 nM was spiked with synthetic hepcidin-25 from Peptide International (PI, Louisville, KY, USA) to a concentration of 9 nM.
WCX-TOF MS was performed between October 2011 and March 2013 as described previously by a combination of WCX bead-based hepcidin enrichment followed by TOF-MS [6]. As internal standards for quantification were used: i) synthetic hepcidin-24 (custom made Peptide International, 2673.9 Da; [5]); ii) novel custom made heavy hepcidin-25^+40 (see below, Table 1). Mass-to-charge (m/z) spectra were generated by using MALDI-TOF MS (Microflex LT, Bruker Daltonics). Spectra were analyzed by using Bruker Daltonics FlexAnalysis software. A detailed protocol of this method is described in [6]. Total hepcidin concentration was defined as the sum of hepcidin-25, -24, -22, and -20 concentrations.
Using the novel heavy hepcidin-25 internal standard, we assessed changes in hepcidin-25 and the smaller isoforms in various samples containing various anticoagulants ex vivo at room temperature (RT), 4°C, −20°C and −80°C. More specifically, changes in hepcidin concentrations relative to those found in freshly collected samples were determined i) at storage at RT and 4°C on day 0 (fresh samples), 1 (14–22 hrs), 2, 3, and 7 days after sampling/storage, ii) at −20°C after 1 week, and after 1, 4 and 6 months of storage and iii) at −80°C at after 6 months of storage. We also assessed the effect of the addition of protease inhibitors on the stability of hepcidin concentrations of heparin plasma of IC patients at RT during a 1 week storage. To this end, before storage we used 1 tablet of protease inhibitor (Complete, Mini, Roche Diagnostics, Mannheim, Germany) solved in 200 µL PBS, of which 20 µL was added to 1 ml plasma. Finally, we used our QC charts to assess the stability of hepcidin concentrations in heparin plasma and serum QC aliquots stored at −80°C for 2 years.

[4] = in vitro; conditions: human
Procedure: as §1, §2

CC[C@H](C)[C@@H]1NC(=O)[C@@H](NC(=O)[C@@H](NC(=O)[C@@H]2CCCN2C(=O)[C@H](Cc2ccccc2)NC(=O)[C@H](Cc2c[nH]cn2)NC(=O)[C@@H](NC(=O)[C@@H](N)CC(=O)O)[C@@H](C)O)[C@@H](C)CC)CSSC[C@@H](C(=O)N[C@@H](CCCCN)C(=O)N[C@H](C(=O)O)[C@@H](C)O)NC(=O)[C@@H]2CSSC[C@H](NC(=O)[C@H](Cc3ccccc3)NC1=O)C(=O)N[C@H]1CSSC[C@H](NC(=O)[C@H](CCCCN)NC(=O)[C@H](CO)NC(=O)[C@H](CCCNC(=N)N)NC(=O)[C@H](Cc3c[nH]cn3)NC(=O)[C@@H]3CSSC[C@H](NC(=O)CNC1=O)C(=O)N3)C(=O)NCC(=O)N[C@@H](CCSC)C(=O)N2 [Hepcidin-25]
remaining at 168 h [1]: 99%
EC50 [2]: 14.7 nM
stable at -80°C for, QC heparin plasma ([3]; QC heparin plasma samples, heavy hepcidin internal standard): at least 1.5 years
stable at -80°C for, QC serum ([3]; QC serum samples, former hepcidin-24 internal standard): 2 years
Hepcidin level after 6 months at -80°C, EDTA plasma ([3]; average, 5 controls, CV 5): 96%
Hepcidin level after 6 months at -80°C, citrate plasma ([3]; average, 5 controls, CV 5): 96%
remaining at 4320 h ([3]; heparin plasma): 95%
remaining at 4320 h ([3]; serum): 94%
average decrease in hepcidin-25 after 6 months at -80°C ([3]; serum, heparin, EDTA and citrate plasma, 5 healthy volunteers, not significant): 4–6%
remaining at 1 mnt ([4]; EDTA plasma): 94%
remaining at 4 mnts ([4]; EDTA plasma): 92%
remaining at 6 months ([4]; EDTA plasma): 88%
remaining at 168 h ([4]; EDTA plasma): 89%
remaining at 672 h ([4]; EDTA plasma): 99%
remaining at 1 mnt ([4]; citrate plasma): 95%
remaining at 4 mnts ([4]; citrate plasma): 102%
remaining at 6 mnts ([4]; citrate plasma): 97%
remaining at 168 h ([4]; citrate plasma): 97%
remaining at 1 mnt ([4]; heparin plasma): 92%
remaining at 4 mnts ([4]; heparin plasma): 100%
remaining at 6 mnts ([4]; heparin plasma): 83%
remaining at 168 h ([4]; heparin plasma): 96%
remaining at 672 h ([4]; heparin plasma): 97%
remaining at 1 mnt ([4]; serum): 96%
remaining at 4 mnts ([4]; serum): 98%
remaining at 6 mnts ([4]; serum): 99%
remaining at 168 h ([4]; serum): 97%
